± gives the expanded uncertainty stated by the source.
How the values were obtained:
[1] = mn = molality of the nth substance listed, in mol/kg; conditions: 101 kPa, Liquid, Capillary tube (Ostwald / Ubbelohde) method
[2] = xn = mol fraction of the nth substance listed; conditions: 101 kPa, Liquid, Capillary tube (Ostwald / Ubbelohde) method
[3] = 101 kPa, Liquid, Capillary tube (Ostwald / Ubbelohde) method

Work on `O=S(=O)([O-])[O-].O=S(=O)([O-])[O-].O=S(=O)([O-])[O-].[Al+3].[Al+3]` [aluminum sulfate] + O yielded a viscosity ([1]; 298.15 K, m1 = 0.0081) of 0.904 ± 0.012 mPa·s, a viscosity ([1]; 298.15 K, m1 = 0.0099) of 0.908 ± 0.012 mPa·s and a viscosity ([1]; 298.15 K, m1 = 0.0201) of 0.927 ± 0.012 mPa·s. For the same compound, the viscosity ([1]; 298.15 K, m1 = 0.0402) was 0.967 ± 0.012 mPa·s, the viscosity ([1]; 298.15 K, m1 = 0.0599) was 1.008 ± 0.013 mPa·s and the viscosity ([1]; 298.15 K, m1 = 0.0802) was 1.05 ± 0.013 mPa·s. For the same compound, the viscosity ([1]; 298.15 K, m1 = 0.1) was 1.093 ± 0.014 mPa·s, the viscosity ([1]; 308.15 K, m1 = 0.0081) was 0.729 ± 0.01 mPa·s and the viscosity ([1]; 308.15 K, m1 = 0.0099) was 0.732 ± 0.01 mPa·s. It also gave a viscosity ([1]; 308.15 K, m1 = 0.0201) of 0.747 ± 0.01 mPa·s, a viscosity ([1]; 308.15 K, m1 = 0.0402) of 0.777 ± 0.01 mPa·s and a viscosity ([1]; 308.15 K, m1 = 0.0599) of 0.807 ± 0.01 mPa·s. The viscosity ([1]; 308.15 K, m1 = 0.0802) was 0.839 ± 0.011 mPa·s and the viscosity ([1]; 308.15 K, m1 = 0.1) was 0.87 ± 0.011 mPa·s.
For `N.N.O=S(=O)(O)O` [ammonium sulfate] + O, the viscosity ([1]; 298.15 K, m1 = 0.0081) was 0.897 ± 0.012 mPa·s, the viscosity ([1]; 298.15 K, m1 = 0.0099) was 0.898 ± 0.012 mPa·s and the viscosity ([1]; 298.15 K, m1 = 0.0201) was 0.902 ± 0.012 mPa·s. It also gave a viscosity ([1]; 298.15 K, m1 = 0.0402) of 0.908 ± 0.012 mPa·s, a viscosity ([1]; 298.15 K, m1 = 0.0599) of 0.913 ± 0.012 mPa·s and a viscosity ([1]; 298.15 K, m1 = 0.0802) of 0.918 ± 0.012 mPa·s. For the same compound, the viscosity ([1]; 298.15 K, m1 = 0.1) was 0.922 ± 0.012 mPa·s, the viscosity ([1]; 308.15 K, m1 = 0.0081) was 0.725 ± 0.009 mPa·s and the viscosity ([1]; 308.15 K, m1 = 0.0099) was 0.726 ± 0.009 mPa·s. It also gave a viscosity ([1]; 308.15 K, m1 = 0.0201) of 0.729 ± 0.01 mPa·s, a viscosity ([1]; 308.15 K, m1 = 0.0402) of 0.735 ± 0.01 mPa·s and a viscosity ([1]; 308.15 K, m1 = 0.0599) of 0.74 ± 0.01 mPa·s. For the same compound, the viscosity ([1]; 308.15 K, m1 = 0.0802) was 0.744 ± 0.01 mPa·s and the viscosity ([1]; 308.15 K, m1 = 0.1) was 0.748 ± 0.01 mPa·s.
Work on `CN(C)C=O` [dimethylformamide] + O yielded a viscosity ([2]; 298.15 K, x1 = 0.05) of 1.002 ± 0.013 mPa·s, a viscosity ([2]; 298.15 K, x1 = 0.1) of 1.126 ± 0.014 mPa·s and a viscosity ([2]; 298.15 K, x1 = 0.15) of 1.258 ± 0.016 mPa·s. It also gave a viscosity ([2]; 298.15 K, x1 = 0.2) of 1.391 ± 0.018 mPa·s, a viscosity ([2]; 308.15 K, x1 = 0.05) of 0.797 ± 0.01 mPa·s and a viscosity ([2]; 308.15 K, x1 = 0.1) of 0.891 ± 0.011 mPa·s. For the same compound, the viscosity ([2]; 308.15 K, x1 = 0.15) was 0.984 ± 0.013 mPa·s and the viscosity ([2]; 308.15 K, x1 = 0.2) was 1.08 ± 0.014 mPa·s.
In the case of `O=S(=O)([O-])[O-].[K+].[K+]` [potassium sulfate] + O, the viscosity ([1]; 298.15 K, m1 = 0.0081) is reported as 0.895 ± 0.012 mPa·s, the viscosity ([1]; 298.15 K, m1 = 0.0099) is reported as 0.896 ± 0.012 mPa·s and the viscosity ([1]; 298.15 K, m1 = 0.0201) is reported as 0.899 ± 0.012 mPa·s. The viscosity ([1]; 298.15 K, m1 = 0.0402) was 0.905 ± 0.012 mPa·s, the viscosity ([1]; 298.15 K, m1 = 0.0599) was 0.909 ± 0.012 mPa·s and the viscosity ([1]; 298.15 K, m1 = 0.0802) was 0.914 ± 0.012 mPa·s. For the same compound, the viscosity ([1]; 298.15 K, m1 = 0.1) was 0.918 ± 0.012 mPa·s, the viscosity ([1]; 308.15 K, m1 = 0.0081) was 0.723 ± 0.009 mPa·s and the viscosity ([1]; 308.15 K, m1 = 0.0099) was 0.724 ± 0.009 mPa·s. It also gave a viscosity ([1]; 308.15 K, m1 = 0.0201) of 0.727 ± 0.009 mPa·s, a viscosity ([1]; 308.15 K, m1 = 0.0402) of 0.732 ± 0.01 mPa·s and a viscosity ([1]; 308.15 K, m1 = 0.0599) of 0.737 ± 0.01 mPa·s. For the same compound, the viscosity ([1]; 308.15 K, m1 = 0.0802) was 0.742 ± 0.01 mPa·s and the viscosity ([1]; 308.15 K, m1 = 0.1) was 0.746 ± 0.01 mPa·s.
Compound `O` [water] has a viscosity ([3]; 298.15 K) of 0.89 ± 0.011 mPa·s and a viscosity ([3]; 308.15 K) of 0.719 ± 0.009 mPa·s.
